In US12570661B2, “Isoform-specific aldehyde dehydrogenase inhibitors” (The Board of Trustees of the Leland Stanford Junior …, priority 2020, dated 2026):
Where two headings read alike, the source gives them in different places.

Assays:
SW480 cells (spheroid) = test: Matrigel spheroid growth / viability assay, SW480; type: cell-based; conditions: for effect on SW480 spheroid formation: 2-μM dose; for GI50: Homo sapiens, SW480, 168 h
Protocol: To prepare Matrigel-coated culture plates, 96-well and 24-well plates were placed on ice and coated with 25 μL or 300 μL, respectively, of Matrigel matrix (Corning, LDEV-free) that had been thawed overnight at 4° C. The plates were then placed in a 37° C. incubator for 30 min to allow the Matrigel to solidify. SW480 or HCT116 cells were suspended in spheroid culture medium (RPMI-1640 containing 20 ng/mL recombinant human epidermal growth factor (Abcam, ab9697), 20 ng/mL recombinant human fibroblast growth factor (BioVision, 4037), 5 μg/mL heparin (Sigma), 1× N-2 supplement (Thermo Fisher Scientific), 100 U/mL penicillin, and 100 μg/mL streptomycin) and then seeded into the 96-well and 24-well Matrigel-coated plates at densities of 1,000 or 5,000 cells/well and total well volumes of […] or 1 mL, respectively. Compounds were diluted in spheroid culture medium and added to the wells, and the spheroid were grown at 37° C. with 5% CO2 for 7 days.
To quantify spheroid growth at the 7-day endpoint, unstained spheroids were imaged with phase-contrast illumination using a Keyence BZ-X710 microscope. Some cultures were also stained with crystal violet to enable brightfield imaging. Briefly, the Matrigel spheroids cultures were treated with PBS containing 0.5% crystal violet and 5% methanol for 15 min at 37° C. and then gently washed 4×5 min with PBS. Spheroid sizes were quantified with ImageJ (Fiji) software using masks created with the default “Threshold” function and foreground/background adjustments to optimize masking fidelity. The full field of view was then selected for “Analyze Particles” analysis, providing numbered list of each spheroid and its area in the micrograph. In the few cases that two adjacent spheroids were treated as one object by the image processing software, their measurements were manually corrected using the “Freehand Selections” tool. To exclude background and debris from dead cells, spheroids with areas less than 500 μm^2 were excluded from the image analyses.
SW480 or HCT116 cells were seeded into regular or Matrigel-coated 96-well plates at a density of 1000 cells/well. The cells were cultured in the corresponding adherent or spheroid culture medium (200 μL/well) containing the designated compounds or an equivalent amount of DMSO vehicle. Each culture was maintained for 7 days, and then cell viabilities were measured using a CellTiter-Glo 3D Cell Viability Assay kit (Promega). Briefly, 100 μL of the culture medium was removed from each well and replaced with 100 μL 3D Cell Assay reagent. The cells in each well were next homogenized by vigorous pipetting, and the plate was incubated for 10 min at room temperature to stabilize the chemiluminescent signal. A 150-μL aliquot from each well was then transferred into a white opaque 96-well assay plate (flat-bottom and non-treated; Corning Costar) and luminescence intensities were measured with a Veritas microplate luminometer (Turner BioSystems).

SW480 cells = test: Seahorse oxygen-consumption-rate assay (SW480); type: cell-based; conditions: Homo sapiens
Protocol: SW480 cells were seeded into a XF96 microplate (Agilent) at a density of 2×10^4 cells/well and cultured for 24 h. The cells were then incubated for 1 h at 37° C. in a non-CO2 incubator, and the plate was then loaded into a 96-well Seahorse XF analyzer (Agilent) and sequentially injected with the indicated compounds, 1 μM oligomycin A, 1 μM FCCP, or 0.5 μM rotenone/antimycin according to the Agilent Mito Stress protocol. The oxygen consumption rates (OCRs, pmol/min) for each well were measured every 5 min for a 15-min period. Basal OCR values was normalized as 100% for data analyses.

Hedgehog (Hh) signaling = test: Hh pathway assay (Shh-LIGHT2 Gli-dependent luciferase reporter, NIH-3T3); type: cell-based, murine; conditions: Mus musculus; read-out: IC50 in Hh pathway assays
Protocol: NIH-3T3 cells stably transfected with Gli-dependent firefly luciferase reporter (Shh-LIGHT2 cells (Taipale, J. et al. (2000) Nature 406, 1005-1009) were seeded into 96-well plates at a density of 2×10^4 cells/well and cultured for 24 h. The cells were then cultured in low-serum (0.5% CS) media containing 100 U/mL penicillin, 100 μg/mL streptomycin, and 200 nM Smoothened agonist (SAG) (Chen, J. K. et al. (2002) Proc. Natl. Acad. Sci. U.S.A. 99, 14071-14076; Frank-Kamenetsky, M. et al. (2002) J. Biol. 1, 10) for 30 h. CellTiter AQueous One (20 μL/well; Promega) was added to the cells and incubated for 30 min at 37° C., and cell viabilities were measured as the 490-nm absorbance of the culture media using a Spectramax M2e microplate reader (Molecular Devices). The cells were then washed with PBS and incubated with Bright-Glo reagent (100 μL/well; Promega) for 5 min at room temperature. The resulting chemiluminescence was measured on a Veritas microplate luminometer (Turner BioSystems) and normalized to the CellTiter signal. The normalized luciferase activities for each compound treatment regimen were normalized further to the DMSO control, and dose-responsive curves were generated using Prism software (GraphPad).

[1] = Matrigel spheroid culture, 7 days, read-out: Spheroid SW480 GI50

GI50 (SW480 cells (spheroid); [1]) [nM] | IC50 (SW480 cells) [nM] | IC50 (Hedgehog (Hh) signaling) [nM] | SMILES | effect on SW480 spheroid formation (SW480 cells (spheroid)) | GI50 (SW480 cells (spheroid); read-out: Spheroid SW480 GI50 (nM), Matrigel spheroid culture, 7 days) [nM]
– | – | – | COc1ccccc1-n1cc(-c2ccccn2)[n+]2c1CCCCC2 [Compound 63] | did not impede the growth | –
1600 | – | – | COc1ccccc1C1=CN(c2ccc(-c3ccccc3)cc2)C2=NCCCCN12 [HPI-273] | – | –
820 | 540 | ~700 | COc1ccccc1-n1cc(-c2ccc(-c3ccccc3)cc2)[n+]2c1CCCCC2 [Imidazolium 2] | strongly suppressed SW480 spheroid formation | –
960 | 340 | – | COc1ccccc1-c1ccc(-c2cn(-c3ccccc3OC)c3[n+]2CCCCC3)cc1.[Br-] [Imidazolium 8] | strongly suppressed SW480 spheroid formation | –
– | – | – | COc1ccccc1C1=CN(c2ccc(-c3ccccc3)cc2)C2=NCCCN12 [STL5-T-0002] | – | 750
